Columns and labels:
Type in all cases: cell-based
[1] = system: Alicyclobacillus acidoterrestris; assay: Minimal Inhibitory Concentration (MIC) assay, broth dilution in BAM, turbidity scored visually; conditions: for Growth in BAM at pH 4.0 at 45° C.: turbidity after 72 hours
Experimental: The basic assay was performed by serially diluting the inhibitors using a two-fold dilution series in a nutrient broth. The dilutions provided inhibitor concentrations in the range of 0.025 ppm to 100 ppm. The nutrient broth used was the American Type Culture Collection Bacillus Agar Medium (BAM) (at pH 4.0 and at 45° C.) for the Alicyclobacillus acidoterrestris. All dilution series were inoculated with approximately 10,000 bacteria per 5 ml. broth tube of freshly cultured (using the same medium) cells per 5 ml. of test assay broth. In each assay, an inoculated sample of the broth without any inhibitor addition was used as a control. Growth was evaluated by visually assessing and scoring the development of turbidity in the broth after 72 hours. The results of the studies are summarized in Table 1 which gives the data from testing the effectiveness of the tetrahydroisohumulone, hexahydrocolupulone and colupulone in inhibiting Alicyclobacillus acidoterrestris. […] Hexahydrocolupulone inhibited the Alicyclobacillus acidoterrestris test strain at or above 50 ppm. Colupulone inhibited the Alicyclobacillus acidoterrestris test strain at or above 50 ppm.

[2] = system: Alicyclobacillus acidocaldarius; assay: Minimal Inhibitory Concentration (MIC) assay, broth dilution in TSB, turbidity scored visually; conditions: for Growth in TSB at pH 7.0: turbidity after 48 hours; for Concentration inhibiting the Alicyclobacillus acidocaldarius test strain (MIC): TSB, pH 7.0, 48 hours
Experimental: The basic assay was performed by serially diluting the inhibitors using a two-fold dilution series in a nutrient broth. The dilutions provided inhibitor concentrations in the range of 0.025 ppm to 100 ppm. The nutrient broth used was trypticase soy broth (TSB) (at pH 7.0) for the Alicyclobacillus acidocaldarius. All dilution series were inoculated with approximately 10,000 bacteria per 5 ml. of broth using freshly cultured (using the same medium) cells per 5 ml. of test assay broth. In each assay, an inoculated sample of the broth without any inhibitor addition was used as a control. Growth was evaluated by visually assessing and scoring the development of turbidity in the broth after 48 hours. The results of the studies are summarized in Table 2 which gives the data from testing the effectiveness of the tetrahydroisohumulone and hexahydrocolupulone in inhibiting Alicyclobacillus acidocaldarius. […] Hexahydrocolupulone inhibited the Alicyclobacillus acidocaldarius test strain at or above 0.05 ppm.

Alicyclobacillus = assay: Inhibition of Alicyclobacillus in a solid or liquid medium (general statement)

Compound	Growth in BAM at pH 4.0 at 45° C. ([1]; 0.025 ppm)	Growth in BAM at pH 4.0 at 45° C. ([1]; 0.05 ppm)	Growth in BAM at pH 4.0 at 45° C. ([1]; 0.1 ppm)	Growth in BAM at pH 4.0 at 45° C. ([1]; 0.2 ppm)	Growth in BAM at pH 4.0 at 45° C. ([1]; 0.4 ppm)	Growth in BAM at pH 4.0 at 45° C. ([1]; 0.8 ppm)	Growth in BAM at pH 4.0 at 45° C. ([1]; 1.6 ppm)	Growth in BAM at pH 4.0 at 45° C. ([1]; 3.125 ppm)	Growth in BAM at pH 4.0 at 45° C. ([1]; 6.25 ppm)	Growth in BAM at pH 4.0 at 45° C. ([1]; 12.5 ppm)	Growth in BAM at pH 4.0 at 45° C. ([1]; 25 ppm)	Growth in BAM at pH 4.0 at 45° C. ([1]; 50 pm)	Growth in BAM at pH 4.0 at 45° C. ([1]; 100 ppm)	Growth in TSB at pH 7.0 ([2]; 0.025 ppm)	Growth in TSB at pH 7.0 ([2]; 0.05 ppm)	Growth in TSB at pH 7.0 ([2]; 0.1 ppm)	Growth in TSB at pH 7.0 ([2]; 0.2 ppm)	Growth in TSB at pH 7.0 ([2]; 0.4 ppm)	Growth in TSB at pH 7.0 ([2]; 0.8 ppm)	Growth in TSB at pH 7.0 ([2]; 1.6 ppm)	other results
CC(C)=CCC1=C(O)C(C(=O)C(C)C)=C(O)C(CC=C(C)C)(CC=C(C)C)C1=O [Colupulone, colupulone]	++++ growth	++++ growth	++++ growth	++++ growth	++++ growth	++++ growth	++++ growth	++++ growth	++++ growth	++++ growth	++++ growth	No growth	No growth	–	–	–	–	–	–	–	–
CC(C)CCC1=C(O)C(C(=O)C(C)C)=C(O)C(CCC(C)C)(CCC(C)C)C1=O [Hexahydrocolupulone, hexahydrocolupulone]	++++ growth	++++ growth	++++ growth	++++ growth	++++ growth	++++ growth	++++ growth	++++ growth	++++ growth	++++ growth	++++ growth	No growth	No growth	++ growth	No growth	No growth	No growth	No growth	No growth	No growth	Growth in TSB at pH 7.0 ([2]; 3.125 ppm): No growth; Growth in TSB at pH 7.0 ([2]; 6.25 ppm): No growth; Growth in TSB at pH 7.0 ([2]; 12.5 ppm): No growth; Growth in TSB at pH 7.0 ([2]; 25 ppm): No growth; Growth in TSB at pH 7.0 ([2]; 50 ppm): No growth; Growth in TSB at pH 7.0 ([2]; 100 ppm): No growth; Concentration inhibiting the Alicyclobacillus acidocaldarius test strain (MIC) [2]: ≥ 0.05 ppm; Concentration effective in inhibiting Alicyclobacillus (Alicyclobacillus): ≥ 0.05 ppm
CC(C)CCC(=O)C1(O)C(O)=C(C(=O)CC(C)C)C(=O)C1CCC(C)C (stereo not shown) [Tetrahydroisohumulone, tetrahydroisohumulone]	++++ growth	++++ growth	++++ growth	++++ growth	++++ growth	++++ growth	++++ growth	++++ growth	++++ growth	++++ growth	No growth	No growth	No growth	++++ growth	++++ growth	++++ growth	++++ growth	++++ growth	++++ growth	++++ growth	Concentration inhibiting the Alicyclobacillus acidoterrestris test strain (MIC) ([1]; BAM, pH 4.0, 45° C., 72 hours): ≥ 25 ppm; Growth in TSB at pH 7.0 ([2]; 3.125 ppm): No growth; Growth in TSB at pH 7.0 ([2]; 6.25 ppm): No growth; Growth in TSB at pH 7.0 ([2]; 12.5 ppm): No growth; Growth in TSB at pH 7.0 ([2]; 25 ppm): No growth; Growth in TSB at pH 7.0 ([2]; 50 ppm): No growth; Growth in TSB at pH 7.0 ([2]; 100 ppm): No growth; Concentration inhibiting the Alicyclobacillus acidocaldarius test strain (MIC) [2]: ≥ 3.125 ppm; Concentration effective in inhibiting Alicyclobacillus (Alicyclobacillus): ≥ 3 ppm
